Measurements published in BindingDB's records for doi:10.1016/j.bmcl.2012.06.068 (Chulalongkorn University, 2012).

Experiments:
[1] = Competitive inhibition of rat intestinal maltase using maltose as substrate assessed as dissociation of enzyme-inhibitor complex at 0.1 to 1 mg/ml by Dixon plot analysis
[2] = Non-competitive inhibition of rat intestinal maltase using maltose as substrate assessed as dissociation of enzyme-substrate-inhibitor complex at 0.1 to 1 mg/ml by secondary plot analysis

Ki [1]: 288 µM
Ki [2]: 1340 µM
SMILES: COc1cc([C@@H]2OC[C@@H]3[C@H]2CO[C@H]3c2ccc(O)c(OC)c2)ccc1O [4-[(1S,3aR,4S,6aR)-4-(4-hydroxy-3-methoxyphenyl)tetrahydro-1H,3H-furo[3,4-c]furan-1-yl]-2-methoxyphenol]
